Our source for the EC50 values is patent US20250136606A1, “MODULATORS OF TRPML, THEIR COMPOSITIONS AND METHODS OF USE” (Caraway Therapeutics, Inc., priority 2021, published 2025).

Type in all cases: cell-based
One assay deals with T1, TRPML3 (Homo sapiens, UniProt Q8TDD5).
T1 construct: expressed in transfected cells
T1 sequence (Q8TDD5 1-553): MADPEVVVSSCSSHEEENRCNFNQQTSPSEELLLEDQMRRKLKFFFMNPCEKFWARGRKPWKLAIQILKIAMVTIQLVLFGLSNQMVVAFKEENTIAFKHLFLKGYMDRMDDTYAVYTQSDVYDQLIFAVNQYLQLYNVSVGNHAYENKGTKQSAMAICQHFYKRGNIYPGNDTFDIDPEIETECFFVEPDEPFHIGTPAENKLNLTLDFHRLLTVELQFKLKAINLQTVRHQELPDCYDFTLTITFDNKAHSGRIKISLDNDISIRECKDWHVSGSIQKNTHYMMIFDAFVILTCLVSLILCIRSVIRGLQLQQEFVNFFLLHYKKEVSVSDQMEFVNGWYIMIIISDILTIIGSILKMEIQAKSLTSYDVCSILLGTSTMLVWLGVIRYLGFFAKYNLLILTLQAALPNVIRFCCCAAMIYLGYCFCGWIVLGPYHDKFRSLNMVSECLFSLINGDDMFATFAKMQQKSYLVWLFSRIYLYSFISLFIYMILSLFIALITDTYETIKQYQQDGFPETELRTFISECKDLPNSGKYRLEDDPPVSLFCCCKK
Kind of assay: Fluorescent TRPML3 assay (performed as for TRPML1, substituting the TRPML3 subtype). Put shortly: (§1)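 Agonist activity is scored as percent of plate controls from Fluo4 fluorescence after dye-loaded, doxycycline-induced HEK-293 Trex cells meet compound in high-calcium (10 mM) Ringer's. Compounds run in half-log dilutions from 20 micromolar final, in triplicate.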

Another assay concerns the target TRPML1 (Homo sapiens, UniProt Q9GZU1). Put plainly: Fluorescent TRPML1 assay (Fluo4-AM calcium fluorescence in doxycycline-induced HEK-293 Trex cells). Put shortly:
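hTRPML1 (mutated for cell-surface expression) in HEK-293 Trex, dox 0.5 ug/mL o/n; Fluo4-AM 1 uM ~60 min, then ~60 min de-esterification, dark; modified Ringer's + 10 mM Ca. Cmpds 20 uM–6 nM final, half-log, n=3. Ex480/Em540; % activity vs ctrls; EC50 by nonlinear regression.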

A further assay addresses T2, TRPML2 (Homo sapiens, UniProt Q8IZK6).
T2 construct: expressed in transfected cells
T2 sequence (Q8IZK6 1-566): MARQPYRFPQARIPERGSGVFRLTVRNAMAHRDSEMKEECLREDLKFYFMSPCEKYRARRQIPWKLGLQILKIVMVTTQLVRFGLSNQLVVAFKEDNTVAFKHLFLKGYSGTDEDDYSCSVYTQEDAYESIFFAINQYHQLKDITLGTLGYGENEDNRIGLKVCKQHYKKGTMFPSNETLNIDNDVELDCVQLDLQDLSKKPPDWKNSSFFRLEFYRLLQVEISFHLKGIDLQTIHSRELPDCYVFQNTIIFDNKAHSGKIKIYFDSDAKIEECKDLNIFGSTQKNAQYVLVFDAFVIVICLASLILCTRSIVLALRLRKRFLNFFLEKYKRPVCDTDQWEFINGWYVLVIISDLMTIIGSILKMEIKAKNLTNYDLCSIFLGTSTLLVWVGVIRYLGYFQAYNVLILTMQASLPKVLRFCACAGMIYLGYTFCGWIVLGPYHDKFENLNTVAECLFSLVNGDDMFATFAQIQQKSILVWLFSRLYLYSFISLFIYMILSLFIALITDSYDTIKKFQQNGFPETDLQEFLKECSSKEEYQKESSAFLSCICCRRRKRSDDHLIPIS
Put plainly: Fluorescent TRPML2 assay (performed as for TRPML1, substituting the TRPML2 subtype). In a few lines:
as §1

Where two headings read alike, the source gives them in different places. Where only a bound is given, the exact number is not on record here.

Sequence of TRPML1 (Q9GZU1 whole entry L15A/L16A/L577A/L578A, form open): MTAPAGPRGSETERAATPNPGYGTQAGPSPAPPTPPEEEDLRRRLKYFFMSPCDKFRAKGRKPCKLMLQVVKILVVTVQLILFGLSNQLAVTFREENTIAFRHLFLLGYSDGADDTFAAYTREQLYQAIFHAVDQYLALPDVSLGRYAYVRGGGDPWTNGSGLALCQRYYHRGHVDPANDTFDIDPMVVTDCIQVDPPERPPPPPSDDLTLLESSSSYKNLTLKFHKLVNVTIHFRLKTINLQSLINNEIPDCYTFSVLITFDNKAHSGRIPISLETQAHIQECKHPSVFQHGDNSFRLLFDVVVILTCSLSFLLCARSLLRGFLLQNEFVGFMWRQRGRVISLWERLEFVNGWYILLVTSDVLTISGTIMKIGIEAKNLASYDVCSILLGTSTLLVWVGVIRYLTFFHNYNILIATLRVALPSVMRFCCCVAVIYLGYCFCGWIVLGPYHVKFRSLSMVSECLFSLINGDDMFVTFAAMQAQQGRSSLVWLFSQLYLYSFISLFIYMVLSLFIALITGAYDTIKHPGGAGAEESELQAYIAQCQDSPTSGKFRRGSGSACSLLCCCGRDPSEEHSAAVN

For `C[C@@H]1CN(c2ncnc3c2c(C(F)(F)F)cn3-c2cc(C#N)ccn2)[C@@H](C)CN1C(=O)OC1(C)CC1` [Compound 519, 1-methylcyclopropyl (2R,5S)-4-(7-(4-cyanopyridin-2-yl)-5-(trifluoromethyl)-7H-pyrrolo[2,3-d]pyrimidin-4-yl)-2,5-dimethylpiperazine-1-carboxylate], the EC50 is below 100 nM at TRPML3, below 100 nM at TRPML1 and 100 to 500 nM at TRPML2.
Take `CCc1cn(-c2cc(C#N)ccn2)c2ncnc(N3CCN(C(=O)OC(C)(C)C)C[C@@H]3C)c12` [Compound 478, tert-butyl (S)-4-(7-(4-cyanopyridin-2-yl)-5-ethyl-7H-pyrrolo[2,3-d]pyrimidin-4-yl)-3-methylpiperazine-1-carboxylate]: the EC50 at TRPML3 (fluorescent calcium assay), on TRPML1 (fluorescent calcium assay) and on TRPML2 (fluorescent calcium assay) was below 100 nM throughout.
For the compound `Cc1nccnc1-c1cn(-c2cc(F)cc(F)c2)c2ncnc(N3CCN(C(=O)OC(C)C)[C@H](C)C3)c12` [Compound 251, isopropyl (R)-4-(7-(3,5-difluorophenyl)-5-(3-methylpyrazin-2-yl)-7H-pyrrolo[2,3-d]pyrimidin-4-yl)-2-methylpiperazine-1-carboxylate], the EC50 is 500 to 2000 nM at TRPML3 (fluorescent calcium assay), above 2000 nM on TRPML1 (fluorescent calcium assay) and above 2000 nM on TRPML2 (fluorescent calcium assay).
Take `Cc1cn(-c2cccc(C(F)(F)F)c2)c2ncnc(N3CCN(C(=O)OC(C)(C)C)C[C@@H]3C)c12` [Compound 684, tert-butyl (S)-3-methyl-4-(5-methyl-7-(3-(trifluoromethyl)phenyl)-7H-pyrrolo[2,3-d]pyrimidin-4-yl)piperazine-1-carboxylate]: the EC50 on TRPML3, at TRPML1 and on TRPML2 was below 100 nM throughout.
As to `C[C@H]1CN(C(=O)OC(C)(C)C)CCN1c1ncnc2c1c(-c1cccnc1)cn2-c1cccc(F)c1` [Compound 226, tert-butyl (S)-4-(7-(3-fluorophenyl)-5-(pyridin-3-yl)-7H-pyrrolo[2,3-d]pyrimidin-4-yl)-3-methylpiperazine-1-carboxylate], the half-maximal effective concentration (EC50) is 100 to 500 nM at TRPML3 (fluorescent calcium assay), 100 to 500 nM at TRPML1 (fluorescent calcium assay) and 500 to 2000 nM at TRPML2 (fluorescent calcium assay).
On to `C[C@@H]1CN(c2ncnc3c2c(-c2cccnc2)cn3-c2cncc(C(F)(F)F)c2)[C@@H](C)CN1C(=O)OC(C)(C)C` [Compound 179, tert-butyl (2R,5S)-2,5-dimethyl-4-(5-(pyridin-3-yl)-7-(5-(trifluoromethyl)pyridin-3-yl)-7H-pyrrolo[2,3-d]pyrimidin-4-yl)piperazine-1-carboxylate], for which the results for the 50% effective concentration (EC50) on TRPML3 (fluorescent calcium assay), at TRPML1 (fluorescent calcium assay) and on TRPML2 (fluorescent calcium assay) were 100 to 500 nM, 500 to 2000 nM and above 2000 nM, respectively.
The corresponding values for `Cc1cncc(-n2cc(C3CC3)c3c(N4C[C@@H](C)N(C(=O)OC(C)(C)C)C[C@@H]4C)ncnc32)c1` [Compound 165, tert-butyl (2R,5S)-4-(5-cyclopropyl-7-(5-methylpyridin-3-yl)-7H-pyrrolo[2,3-d]pyrimidin-4-yl)-2,5-dimethylpiperazine-1-carboxylate] are 100 to 500 nM, 100 to 500 nM and 500 to 2000 nM.
The like results for `C[C@@H]1CN(c2ncnc3c2c(-c2ccncc2)cn3-c2cc(F)cc(F)c2)CCN1C(=O)OC(C)(C)C` [Compound 216, tert-butyl (R)-4-(7-(3,5-difluorophenyl)-5-(pyridin-4-yl)-7H-pyrrolo[2,3-d]pyrimidin-4-yl)-2-methylpiperazine-1-carboxylate] were, in that order, 100 to 500 nM, below 100 nM and 500 to 2000 nM.
The corresponding values for `Cc1c(F)cc(-n2cc(N3CCCC3)c3c(N4CCN(C(=O)OC(C)(C)C)C[C@@H]4C)ncnc32)cc1F` [Compound 374, tert-butyl (S)-4-(7-(3,5-difluoro-4-methylphenyl)-5-(pyrrolidin-1-yl)-7H-pyrrolo[2,3-d]pyrimidin-4-yl)-3-methylpiperazine-1-carboxylate] are below 100 nM, 100 to 500 nM and 500 to 2000 nM.
As for `CCC(CC)OC(=O)N1C[C@H](C)N(c2ncnc3c2c(C(F)(F)F)cn3-c2cc(C#N)ccn2)C[C@H]1C` [Compound 512, pentan-3-yl (2R,5S)-4-(7-(4-cyanopyridin-2-yl)-5-(trifluoromethyl)-7H-pyrrolo[2,3-d]pyrimidin-4-yl)-2,5-dimethylpiperazine-1-carboxylate], the EC50 at TRPML3 is below 100 nM; at TRPML1, below 100 nM; on TRPML2, 100 to 500 nM.
As for `COc1cncc(-n2cc(-c3ccccc3F)c3c(N4CCN(C(=O)OC(C)(C)C)C[C@@H]4C)ncnc32)c1` [Compound 105, tert-butyl (S)-4-(5-(2-fluorophenyl)-7-(5-methoxypyridin-3-yl)-7H-pyrrolo[2,3-d]pyrimidin-4-yl)-3-methylpiperazine-1-carboxylate], the values for the 50% effective concentration (EC50) on TRPML3 (fluorescent calcium assay), on TRPML1 (fluorescent calcium assay) and on TRPML2 (fluorescent calcium assay) were 500 to 2000 nM, 500 to 2000 nM and above 2000 nM, respectively.
Turning to `CC(C)(C)OC(=O)N1CCN(c2ncnc3c2c(C2CC2)cn3-c2cc(C#N)ccn2)[C@@H]2C[C@@H]21` (single isomer, unassigned) [Compound 408], the EC50 at TRPML3 (fluorescent calcium assay) is below 100 nM; on TRPML1 (fluorescent calcium assay), 100 to 500 nM; at TRPML2 (fluorescent calcium assay), 100 to 500 nM.
As to `C[C@H]1CN(C(=O)OC(C)(C)C)CCN1c1ncnc2c1c(-c1cncnc1)cn2-c1cccc(C#N)c1` [Compound 328, tert-butyl (S)-4-(7-(3-cyanophenyl)-5-(pyrimidin-5-yl)-7H-pyrrolo[2,3-d]pyrimidin-4-yl)-3-methylpiperazine-1-carboxylate], the 50% effective concentration (EC50) was 100 to 500 nM at TRPML3 (fluorescent calcium assay), 500 to 2000 nM at TRPML1 (fluorescent calcium assay) and above 2000 nM on TRPML2 (fluorescent calcium assay).
For `Cc1nccnc1-c1cn(-c2cc(C#N)ccn2)c2ncnc(N3CCN(C(=O)OC(C)(C)C)C[C@@H]3C)c12` [Compound 319, tert-butyl (S)-4-(7-(4-cyanopyridin-2-yl)-5-(3-methylpyrazin-2-yl)-7H-pyrrolo[2,3-d]pyrimidin-4-yl)-3-methylpiperazine-1-carboxylate], the concentration for a half-maximal effect (EC50) on TRPML3 (fluorescent calcium assay) was 100 to 500 nM; at TRPML1 (fluorescent calcium assay) it was 500 to 2000 nM; at TRPML2 (fluorescent calcium assay), 500 to 2000 nM.
For `CCN(CC)c1cn(-c2cccc(Cl)c2)c2ncnc(N3CCN(C(=O)OC(C)(C)C)C[C@@H]3C)c12` [Compound 366, tert-butyl (S)-4-(7-(3-chlorophenyl)-5-(diethylamino)-7H-pyrrolo[2,3-d]pyrimidin-4-yl)-3-methylpiperazine-1-carboxylate], the EC50 at TRPML3 (fluorescent calcium assay) is below 100 nM; on TRPML1 (fluorescent calcium assay) it was below 100 nM; at TRPML2 (fluorescent calcium assay), 100 to 500 nM.
On to `C[C@@H]1CN(c2ncnc3c2c(C2CC2)cn3-c2cc(C#N)ccn2)CCN1C(=O)OC(C)(C)C` [Compound 384, tert-butyl (R)-4-(7-(4-cyanopyridin-2-yl)-5-cyclopropyl-7H-pyrrolo[2,3-d]pyrimidin-4-yl)-2-methylpiperazine-1-carboxylate], for which the EC50 on TRPML3 (fluorescent calcium assay) was below 100 nM; at TRPML1 (fluorescent calcium assay), below 100 nM; on TRPML2 (fluorescent calcium assay), 100 to 500 nM.
Regarding `C[C@@H]1CN(c2ncnc3c2c(C(F)(F)F)cn3-c2ccccn2)[C@@H](C)CN1C(=O)OC(C)(C)C` [Compound 663, tert-butyl (2R,5S)-2,5-dimethyl-4-(7-(pyridin-2-yl)-5-(trifluoromethyl)-7H-pyrrolo[2,3-d]pyrimidin-4-yl)piperazine-1-carboxylate], the EC50 at TRPML3 is 100 to 500 nM; at TRPML1, 100 to 500 nM; at TRPML2, above 2000 nM.
In the case of `C[C@@H]1CN(c2ncnc3c2c(C(F)F)cn3-c2cc(C#N)ccn2)[C@@H](C)CN1C(=O)OC1(C)CCC1` [Compound 605, 1-methylcyclobutyl (2R,5S)-4-(7-(4-cyanopyridin-2-yl)-5-(difluoromethyl)-7H-pyrrolo[2,3-d]pyrimidin-4-yl)-2,5-dimethylpiperazine-1-carboxylate], the half-maximal effective concentration (EC50) on TRPML3 was below 100 nM; at TRPML1, below 100 nM; on TRPML2 it was 100 to 500 nM.
